pIC50: −log10 of the molar value.
Experiment: Inhibitory activity against thrombin induced platelet aggregation

CN[C@H](Cc1ccccc1)C(=O)N1CCC[C@H]1C(=O)N[C@H](C=O)CCCN=C(N)N [1-(2-Methylamino-3-phenyl-propionyl)-pyrrolidine-2-carboxylic acid (1-formyl-4-guanidino-butyl)-amide] showed a pIC50 of 7.64.
Molecule CN[C@H](Cc1ccccc1)C(=O)N1CCC[C@H]1C(=O)N[C@@H](CCCN=C(N)N)C(=O)c1nc2ccccc2s1 [RWJ-50353] has a pIC50 of 7.64.

Source: BindingDB's records for doi:10.1021/jm9603274 (R. W. Johnson Pharmaceutical Research Institute, 1996)
